Reference: patent publication US10343992B2, “1-cyano-pyrrolidine compounds as USP30 inhibitors” (MISSION THERAPEUTICS LIMITED, priority 2015, dated 2019)

Target: USP30 (Homo sapiens (Human), UniProt Q70CQ3)
Test: USP30 biochemical FP or FI IC50 assay
Conditions: read-out: IC50 range
Description: USP30 Biochemical IC50 Assay
Dilution plates were prepared at 21 times the final concentration (2100 μM for a final concentration of 100 μM) in 50% DMSO in a 96-well polypropylene V-bottom plate (Greiner #651201). A typical 8-point dilution series would be 100, 30, 10, 3, 1, 0.3, 0.1, 0.03 μM final. Reactions were performed in duplicate in black 384 well plates (small volume, Greiner 784076) in a final reaction volume of 21 μl. Either 1 μl of 50% DMSO or diluted compound was added to the plate. USP30 was diluted in reaction buffer (40 mM Tris, pH 7.5, 0.005% Tween 20, 0.5 mg/ml BSA, 5 mM—beta-mercaptoethanol) to the equivalent of 0.05 μl/well and 10 μl of diluted USP30 was added to the compound. Enzyme and compound were incubated for 30 min at room temp. Reactions were initiated by the addition of 50 nM of TAMRA labelled peptide linked to ubiquitin via an iso-peptide bond as fluorescence polarisation substrate. Reactions were read immediately after addition of substrate and following a 2 hr incubation at room temperature. Readings were performed on a Pherastar Plus (BMG Labtech). λ Excitation 540 nm; λ Emission 590 nm.
USP30 Biochemical Fluorescence Intensity IC50 Assay
Dilution plates were prepared at 21 times the final concentration (2100 μM for a final concentration of 100 μM) in 50% DMSO in a 96-well polypropylene V-bottom plate (Greiner #651201). A typical 8-point dilution series would be 100, 30, 10, 3, 1, 0.3, 0.1, 0.03 μM final. Reactions were performed in duplicate in black 384 well plates (small volume, Greiner 784076) in a final reaction volume of 21 μl.
Either 1 μl of 50% DMSO or diluted compound was added to the plate. USP30 was diluted in reaction buffer (40 mM Tris, pH 7.5, 0.005% Tween 20, 0.5 mg/ml BSA, 5 mM—beta-mercaptoethanol) to the equivalent of 0.001 μl/well and 10 μl of diluted USP30 was added to the compound. Enzyme and compound were incubated for 30 min at room temp. Reactions were initiated by the addition of Ubiquitin-Rhodamine 110 (U-555; Boston Biochem) at a final concentration of 100 nM. Reactions were read immediately after addition of substrate and following a 2 h incubation at room temperature. Readings were performed on a Pherastar Plus (BMG Labtech). λ Excitation 487 nm; λ Emission 535 nm.

Sequence of USP30 (Q70CQ3 57-517): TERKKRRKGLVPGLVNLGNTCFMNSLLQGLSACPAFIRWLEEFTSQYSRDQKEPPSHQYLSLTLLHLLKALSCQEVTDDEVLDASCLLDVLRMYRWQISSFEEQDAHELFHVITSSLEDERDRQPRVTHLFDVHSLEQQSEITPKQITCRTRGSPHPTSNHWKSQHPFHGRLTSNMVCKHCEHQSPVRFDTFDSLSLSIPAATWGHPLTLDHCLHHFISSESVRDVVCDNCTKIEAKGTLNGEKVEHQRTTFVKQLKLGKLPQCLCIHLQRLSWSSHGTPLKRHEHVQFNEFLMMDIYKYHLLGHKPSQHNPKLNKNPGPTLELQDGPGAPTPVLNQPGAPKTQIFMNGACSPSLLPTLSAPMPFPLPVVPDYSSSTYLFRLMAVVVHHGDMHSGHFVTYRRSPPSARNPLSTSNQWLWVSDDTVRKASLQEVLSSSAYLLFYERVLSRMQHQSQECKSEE

| IC50 [nM] | SMILES |
| --- | --- |
| 100 to 1000 | N#CN1C[C@H]2CCN(C(=O)c3cc(-c4ccccc4)n[nH]3)[C@H]2C1 (stereo in doubt) [Example 246, 1-(3-phenyl-1H-pyrazole-5-carbonyl)hexahydropyrrolo[3,4-b]pyrrole-5(1H)-carbonitrile] |
| < 100 | COc1cc(C(=O)N[C@@H]2CCN(C#N)C2)ccc1-c1cnn(C)c1 [Example 2, (R)—N-(1-cyanopyrrolidin-3-yl)-3-methoxy-4-(1-methyl-1H-pyrazol-4-yl)benzamide] |
| < 100 | N#CN1CCC(NC(=O)c2ccc(-c3ccccc3Cl)cc2)C1 (stereo not drawn) [Example 3, 2′-chloro-N-(1-cyanopyrrolidin-3-yl)-[1,1′-biphenyl]-4-carboxamide] |
| 100 to 1000 | CN(Cc1ccccc1)c1ccc(C(=O)NC2CCN(C#N)C2)cn1 (stereo not drawn) [Example 4, 6-(benzyl(methyl)amino)-N-(1-cyanopyrrolidin-3-yl)nicotinamide] |
| 100 to 1000 | N#CN1CC[C@@H](NC(=O)N2CC(c3ccccc3)C2)C1 [Example 5, (R)—N-(1-cyanopyrrolidin-3-yl)-3-phenylazetidine-1-carboxamide] |
| 100 to 1000 | C[C@@H]1CN(c2ccc(C(=O)N[C@@H]3CCN(C#N)C3)cc2F)C[C@H](C)O1 [Example 6, N—((R)-1-cyanopyrrolidin-3-yl)-4-((cis)-2,6-dimethylmorpholino)-3-fluorobenzamide] |
| 100 to 1000 | N#CN1CCC(NC(=O)c2ccc(N3CCC(Oc4ccccc4)CC3)nc2)C1 (stereo not drawn) [Example 22, N-(1-cyanopyrrolidin-3-yl)-6-(4-phenoxypiperidin-1-yl)nicotinamide] |
| 100 to 1000 | N#CN1CCC(NC(=O)c2ccnc(N3CCc4ccccc4C3)c2)C1 (stereo not drawn) [Example 27, N-(1-cyanopyrrolidin-3-yl)-2-(3,4-dihydroisoquinolin-2(1H)-yl)isonicotinamide] |
| 100 to 1000 | N#CN1CC[C@@H](NC(=O)c2cccc(-c3ccccc3)n2)C1 [Example 29, (R)-N-(1-cyanopyrrolidin-3-yl)-6-phenylpicolinamide] |
| 100 to 1000 | N#CN1CC[C@@H](NC(=O)c2cc(-c3ccccc3)ccn2)C1 [Example 30, (R)-N-(1-cyanopyrrolidin-3-yl)-4-phenylpicolinamide] |
| 100 to 1000 | N#CN1CC[C@@H](NC(=O)c2ccc(N3CCOCC3)c(F)c2)C1 [Example 32, (R)-N-(1-cyanopyrrolidin-3-yl)-3-fluoro-4-morpholinobenzamide] |
| 100 to 1000 | N#CN1CC[C@@H](NC(=O)c2cc(-c3ccccc3)no2)C1 [Example 33, (R)-N-(1-cyanopyrrolidin-3-yl)-3-phenylisoxazole-5-carboxamide] |
| 100 to 1000 | N#CN1CC[C@@H](NC(=O)c2cc(-c3ccncc3)on2)C1 [Example 34, (R)-N-(1-cyanopyrrolidin-3-yl)-5-(pyridin-4-yl)isoxazole-3-carboxamide] |
| < 100 | N#CN1CC[C@@H](NC(=O)c2ccc(-c3ccccc3)cc2)C1 [Example 35, (R)-N-(1-cyanopyrrolidin-3-yl)-[1,1′-biphenyl]-4-carboxamide] |
| < 100 | N#CN1CC[C@@H](NC(=O)c2cnc(-c3ccccc3Cl)s2)C1 [Example 37, (R)-2-(2-chlorophenyl)-N-(1-cyanopyrrolidin-3-yl)thiazole-5-carboxamide] |
| < 100 | N#CN1CC[C@@H](NC(=O)c2ccc(-c3ccncc3Cl)cc2)C1 [Example 38, (R)-4-(3-chloropyridin-4-yl)-N-(1-cyanopyrrolidin-3-yl)benzamide] |

| SMILES | IC50 [nM] |
| --- | --- |
| CO[C@H]1CN(C#N)C[C@@H]1N(C)C(=O)c1ccc(-c2cnn(C)c2)cc1 (relative stereo) [Example 178, N-((trans)-1-cyano-4-methoxypyrrolidin-3-yl)-N-methyl-4-(1-methyl-1H-pyrazol-4-yl)benzamide] | 100 to 1000 |
| N#CN1CC[C@@H](NC(=O)c2ccc(-c3ccccc3)cn2)C1 [Example 1, (R)—N-(1-cyanopyrrolidin-3-yl)-5-phenylpicolinamide] | 100 to 1000 |
